Here are results for one compound from patent US9675715B2, “Contrast agent for photoacoustic imaging” (CANON KABUSHIKI KAISHA, priority 2012, dated 2017).

Entries after “also recorded” stand apart in the source; their conditions may differ.

The test system of series [1] is sentinel lymph node (mouse popliteal lymph node). The series is described as follows: Accumulation in sentinel lymph node, absorbance of lymph node extracts. The series is classed as in vivo. The following applies: 1 day after administration, 10 nmol dye, accumulation of ICG defined as 1.
Method: In examples of the present invention, the transfer of the contrast agent for PAI into a sentinel lymph node (SLN) was evaluated by the use of a mouse popliteal lymph node. Ten microliters of the contrast agent was administered subcutaneously into the plantar surface of a nude mouse.
As a comparative example, mouse popliteal lymph nodes were removed 1 day after the administration of various contrast agents, homogenized, and extracted. The resulting extracts were subjected to absorbance measurement.
Accumulation rates were each calculated on the basis of the following formula: Accumulation rate={(absorbance of removed mouse popliteal lymph node)/(absorbance corresponding to amount of sample administered)}×100
After the calculation of the accumulation, the accumulation ratios of various materials were calculated when the accumulation 1 day after the administration of ICG was defined as 1.
According to “Evaluation example of accumulation in sentinel lymph node”, the accumulation in a sentinel lymph node was evaluated. In this example, 10 nmol of the contrast agent in terms of the amount of the dye was administered to a mouse.
For the next series, the system named is cerebral blood vessels. The following applies: rat, free ICG administered in blood, NPL 1; cited from earlier work.
For another series, the system named is N87 cell line tumor. Kind of series: Amount transferred into tumor mass, fluorescence imaging of N87 tumor-bearing mice. The series is classed as in vivo, mouse. The following applies: 1 day after administration, fluorescence ROI of tumor site, relative to ROI value of ICG.
Series [2] has as its system sentinel lymph node (mouse popliteal lymph node). Kind of series: Photoacoustic imaging of sentinel lymph node after subcutaneous plantar administration. The class given is in vivo. To be noted: photoacoustic imaging 1 day after subcutaneous administration into plantar surface of nude mouse, 130 nmol dye. The method, then:
(§1) A commercially available photoacoustic imaging apparatus (Nexus128, manufactured by Endra Inc.) was used. Photoacoustic signals were measured at predetermined timings before and after the administration of a prepared contrast agent for PAI, and three-dimensional reconstruction data was acquired for each timing. The photoacoustic signal intensity in a region of interest (ROI) was measured on the basis of the resulting three-dimensional reconstruction data using software (GEHC MICROVIEW, GE Healthcare) or the like.

A short description of series [3]: Accumulation of contrast agent in Colon 26 tumor, dye extraction and fluorescence. The class given is in vivo. To be noted: BALB/c Slc-nu/nu, mouse, intravenous, 13 nmol in terms of ICG. The method, then:
(§2) Tumor model mice were prepared by subcutaneously implanting Colon 26 cells into BALB/c Slc-nu/nu mice.
(§3) Tumor model mice were prepared by subcutaneously implanting Colon 26 cells into BALB/c Slc-nu/nu mice. […] Furthermore, in this example, an aqueous solution of ICG (available from Pharmaceutical and Medical Device Regulatory Science of Japan) was used as a control sample.

For series [4] the following is noted: known; cited from earlier work.
Series [5] can be described thus: Hydrodynamic average particle size by dynamic light scattering. The class given is physicochemical. To be noted: DLS-8000. The text has this:
In this embodiment, the particle size of the particles may be determined by measuring the hydrodynamic average particle size using the dynamic light scattering (DLS) method with a dynamic light scattering spectrophotometer (DLS-8000, manufactured by Otsuka Electronics Co., Ltd).
The ICG-encapsulating micellar particles refer to micellar particles in which ICG is contained in surfactant micelles by a known emulsification technique.

Another series deals with tumor site. Kind of series: Photoacoustic signal intensity at tumor site 1 day after administration, relative to ICG. The class given is in vivo, mouse. The method, then: as §1
Series [6] is described as follows: Blood accumulation in Colon 26 tumor model mice. The following applies: BALB/c Slc-nu/nu, mouse, intravenous, 13 nmol in terms of ICG, read-out: Blood accumulation 1 day after administration. The class given is in vivo. The method, then: as §2, §3

Method for N87 cell line tumor: The tumor-bearing mice were prepared by subcutaneously implanting a human gastric cancer cell line (N87) or a human cervical cancer cell line (HeLa) into nude mice. Then 130 nmol of a contrast agent in terms of the amount of the dye was administered into each of the tumor-bearing mice. […] As a comparative example, fluorescence imaging of the tumor-bearing mice was performed 1 day after the administration. Fluorescence imaging was performed with IVIS (registered trademark) Imaging System to measure fluorescence intensity in a region of interest (ROI) of the tumor site.
The tumor accumulation 1 day after the administration was evaluated by fluorescence. The accumulation in ROI of the tumor site was calculated.

For `CC1(C)C(/C=C/C=C/C=C/C=C2/N(CCCCS(=O)(=O)[O-])c3ccc4ccccc4c3C2(C)C)=[N+](CCCCS(=O)(=O)[O-])c2ccc3ccccc3c21.[Na+]` [ICG, indocyanine green], the Relative accumulation in series [1] is recorded as 1.0. Besides, in the series on cerebral blood vessels, the “time after administration at which photoacoustic signal intensity is reduced to a level equal to that of blood” value is listed as “several tens of minutes”. In the series on N87 cell line tumor, this compound showed a Relative tumor accumulation of 1.0. Moreover, the “Visualization of SLN” value in series [2] is given as “substantially no photoacoustic signal was observed; also recorded: unvisualizable”. In addition, in [3] (tumor / blood, 1 day after administration, read-out: Ratio of accumulation (tumor/blood)), the Kp at 24 h came out at 0.5. Besides, in series [3] (tumor tissue (Colon 26), Colon 26 tumor, 24 hours, read-out: Tumor accumulation 1 day after administration), the tissue uptake at 24 h amounted to 0.1 %ID/g. Further, in series [4], the half-life in blood result is “about several minutes”. The “Hydrodynamic average particle size” value in [5] is listed as “unmeasurable”. The “Relative photoacoustic signal intensity 1 day after administration (signal intensity in administration of ICG = 1.0)” value in the series with tumor site came out at 1.0. The tissue uptake at 1 day in [6] is 0.2 %ID/g.
